According to patent US20060205788A1, “Compounds having activity at 5ht2c receptor and uses thereof” (priority 2003, published 2006):

COc1ccc(C2=CCN(c3ccc(Cl)c(Cl)c3)C2=O)cc1OCCN1CCCCC1
melting point: 98 to 99 °C
